Measurements from patent US6407129B1, “Azole compounds, their production and their use” (Takeda Chemical Industries, Ltd., priority 1997, dated 2002).

What was measured:
Assay type in all cases: in vivo
Candida albicans TA [1] = assay: Protective effect against experimental Candida albicans TA infection in mice, oral administration (Experiment 2); conditions: Crj:CDF1 female mice, i.v. infection, compound in 5% glucose given orally immediately after infection; Reed and Muench from survival rates on day 7
Procedure: Method: Five-week-old Crj:CDF1 female mice were infected intravenously with minimum lethal dose of Candida albicans TA. The test compounds were dissolved in 5% glucose solution and were administered orally to the mice immediately after infection. Protective effects of the compounds were expressed as 50% effective dose (ED50) calculated using the method of Reed and Muench from survival rates on day 7 after infection.

Candida albicans TA [2] = assay: Protective effect against experimental Candida albicans TA infection in mice, intravenous administration (Experiment 1); conditions: Crj:CDF1 female mice, compound in 5% glucose given intravenously immediately after infection, Reed and Muench from survival rates on day 7
Procedure: Method: Five-week-old Crj:CDF1 female mice were infected intravenously with minimum lethal dose of Candida albicans TA. The test compounds were dissolved in 5% glucose solution and were administered intravenously to the mice immediately after infection. Protective effects of the compounds were expressed as 50% effective dose (ED50) calculated using the method of Reed and Muench from survival rates on day 7 after infection.

Candida albicans T.A. = assay: Protective effect at a single dose of 1.04 μmol/kg against experimental Candida albicans TA infection in mice (Experiment 3); conditions: n = 5 mice; for Mean survival day of the mice which died, i.v. / No. of survivors, i.v.: 1.04 μmol/kg i.v.; for Mean survival day of the mice which died, i.v. / Mean survival day of the mice which died, p.o.: mice which had died up to 7 days after infection; for No. of survivors, i.v. / No. of survivors, p.o.: survivors on day 7 after infection; for Mean survival day of the mice which died, p.o. / No. of survivors, p.o.: 1.04 μmol/kg p.o.
Procedure: Method: Five-week-old Crj:CDF1 female mice were infected intravenously with minimum lethal dose of Candida albicans T.A. The test compounds were dissolved in 5% glucose solution and were administered intravenously (i.v.) or orally (p.o.) to the mice at a dose of 1.04 μmol/kg immediately after infection. Protective effect of each compound were expressed as the number of survivors on day 7 after infection and the mean survival days of the mice which had died up to 7 days after infection.
The protective effect of the reference compound shown in figure (V) is included in Table 7. The reference compound was suspended in 0.5% sodium carboxymethyl cellulose and was administered orally to the mice at a dose of 1.04 μmol/kg immediately after infection.

Compound: 1-[(2R,3R)-2-(2,4-difluorophenyl)-2-hydroxy-3-[2-oxo-3-[4-(1H-1,2,3-triazol-1-yl)phenyl]-1-imidazolidinyl]butyl]-4-[(2,2-dimethylpropanoyloxy)methyl]-1H-1,2,4-triazolium chloride [Compound 1]
- ED50 p.o. (Candida albicans TA [1]): 2.9 µmol/kg
- ED50 i.v. (Candida albicans TA [2]): 2.3 µmol/kg

Compound: 1-[(2R,3R)-2-(2,4-difluorophenyl)-2-hydroxy-3-[2-oxo-3-[4-(1H-tetrazol-1-yl)phenyl]-1-imidazolidinyl]butyl]-4-(isopropoxycarbonyloxy)methyl-1H-1,2,4-triazolium chloride [Compound 18]
- Mean survival day of the mice which died, i.v. (Candida albicans T.A.): 5.5 days
- No. of survivors, i.v. (Candida albicans T.A.): 3
- Mean survival day of the mice which died, p.o. (Candida albicans T.A.): 4.5 days
- No. of survivors, p.o. (Candida albicans T.A.): 3

Compound: CC(N1CCN(c2ccc(-n3cnnn3)cc2)C1=O)C(O)(Cn1cncn1)c1ccc(F)cc1F (stereo not shown) [Reference compound (V), reference compound]
- Mean survival day of the mice which died, p.o. (Candida albicans T.A.): 4.3 days
- No. of survivors, p.o. (Candida albicans T.A.): 2

Compound: C[C@@H](N1CCN(c2ccc(-n3cnnn3)cc2)C1=O)[C@](O)(C[n+]1cn(COC(=O)C(C)(C)C)cn1)c1ccc(F)cc1F.[Cl-] [Compound 2, 1-[(2R,3R)-2-(2,4-difluorophenyl)-2-hydroxy-3-[2-oxo-3-[4-(1H-tetrazol-1-yl)phenyl]-1-imidazolidinyl]butyl]-4-[(2,2-dimethylpropanoyloxy)methyl]-1,2,4-triazolium chloride]
- ED50 p.o. (Candida albicans TA [1]): 1.8 µmol/kg
- ED50 i.v. (Candida albicans TA [2]): 1.5 µmol/kg

Compound: CCOC(=O)OC[n+]1cnn(C[C@](O)(c2ccc(F)cc2F)[C@@H](C)N2CCN(c3ccc(-n4cnnn4)cc3)C2=O)c1.[Cl-] [Compound 16, 1-[(2R,3R)-2-(2,4-difluorophenyl)-2-hydroxy-3-[2-oxo-3-[4-(1H-tetrazol-1-yl)phenyl]-1-imidazolidinyl]butyl]-4-ethoxycarbonyloxymethyl-1H-1,2,4-triazolium chloride]
- Mean survival day of the mice which died, i.v. (Candida albicans T.A.): 6.0 days
- No. of survivors, i.v. (Candida albicans T.A.): 4
- No. of survivors, p.o. (Candida albicans T.A.): 5

Compound: CC(=O)OC[n+]1cnn(C[C@](O)(c2ccc(F)cc2F)[C@@H](C)N2CCN(c3ccc(-n4cnnn4)cc3)C2=O)c1.[Cl-] [Compound 12, 4-acetoxymethyl-1-[(2R,3R)-2-(2,4-difluorophenyl)-2-hydroxy-3-[2-oxo-3-[4-(1H-tetrazol-1-yl)phenyl]-1-imidazolidinyl]butyl]-1H-1,2,4-triazolium chloride]
- Mean survival day of the mice which died, i.v. (Candida albicans T.A.): 4.5 days
- No. of survivors, i.v. (Candida albicans T.A.): 3
- Mean survival day of the mice which died, p.o. (Candida albicans T.A.): 5.0 days
- No. of survivors, p.o. (Candida albicans T.A.): 4

Compound: CC(=O)OC[n+]1cnn(C[C@](O)(c2ccc(F)cc2F)[C@@H](C)N2CCN(c3ccc(-n4cnnn4)cc3)C2=O)c1.[Br-] [Compound 11, 4-acetoxymethyl-1-[(2R,3R)-2-(2,4-difluorophenyl)-2-hydroxy-3-[2-oxo-3-[4-(1H-tetrazol-1-yl)phenyl]-1-imidazolidinyl]butyl]-1H-1,2,4-triazolium bromide]
- Mean survival day of the mice which died, i.v. (Candida albicans T.A.): 4.0 days
- No. of survivors, i.v. (Candida albicans T.A.): 2
- Mean survival day of the mice which died, p.o. (Candida albicans T.A.): 6.0 days
- No. of survivors, p.o. (Candida albicans T.A.): 3

Compound: CCC(=O)OC[n+]1cnn(C[C@](O)(c2ccc(F)cc2F)[C@@H](C)N2CCN(c3ccc(-n4cnnn4)cc3)C2=O)c1.[Cl-] [Compound 14, 1-[(2R,3R)-2-(2,4-difluorophenyl)-2-hydroxy-3-[2-oxo-3-[4-(1H-tetrazol-1-yl)phenyl]-1-imidazolidinyl]butyl]-4-propanoyloxymethyl-1H-1,2,4-triazolium chloride]
- Mean survival day of the mice which died, i.v. (Candida albicans T.A.): 4.5 days
- No. of survivors, i.v. (Candida albicans T.A.): 1
- Mean survival day of the mice which died, p.o. (Candida albicans T.A.): 6.0 days
- No. of survivors, p.o. (Candida albicans T.A.): 3
